Reference: publication PMC12073635, “Synthesis of Tricyclic and Tetracyclic Lactone Derivatives of Thieno[2,3-b]pyrazine or Thieno[2,3-b]quinoline: Preliminary Antitumor and Antiparasitic Activity Evaluation” (Molecules, 2025)

Key:
[1] = system: CaCo-2 (colorectal adenocarcinoma) cells; assay: SRB cell growth inhibition assay, CaCo-2; assay type: cell-based, human; conditions: mean ± standard deviation
Description: (§1) The antitumor potential of the Sonogashira coupling products 2, tricyclic lactones 3 and 5, and tetracyclic lactones 7 was evaluated using the sulforhodamine B (SRB) assay against five human tumor cell lines: colorectal adenocarcinoma (CaCo-2), breast adenocarcinoma (MCF-7), gastric adenocarcinoma (AGS), cervical carcinoma (HeLa), and non-small cell lung cancer (NCI-H460). A primary pig liver cell culture (PLP2) was used to assess the toxicity of compounds.
(§2) The human tumor cell lines used were CaCo-2 (colorectal adenocarcinoma), MCF-7 (breast adenocarcinoma), AGS (gastric adenocarcinoma), HeLa (cervical carcinoma), NCI-H460 (lung carcinoma). Non-tumor cell lines were also tested: PLP2 (primary pig liver culture). All the cell lines were maintained in RPMI-1640 medium supplemented with 10% fetal bovine serum, glutamine (2 mM), penicillin (100 U/mL), and streptomycin ([…]), with the exception of PLP2, which was maintained in DMEM medium supplemented with fetal bovine serum (10%), glutamine and antibiotics. The culture flasks were incubated at 37 °C and with 5% CO2, under a humid atmosphere. The cells were used only when they had 70 to 80% confluence. A known mass of each compound was dissolved in DMSO/H2O (1:1, 1 mL), in order to obtain the stock solutions with a concentration of 1 mM. […] Each compound concentration (10 μL) was incubated with the cell suspension (190 μL) of the cell lines tested in 96-well microplates for 72 h. The microplates were incubated at 37 °C and with 5% CO2 in a humid atmosphere after checking the adherence of the cells. All cell lines were tested at a concentration of 10,000 cells/well. After the incubation period, the cells were treated: TCA (10% w/v; 100 μL) was previously cooled, and plates were incubated for 1 h at 4 °C, washed with water, and, after drying, a SRB solution (0.057%, m/v; 100 μL) was added and left to stand at room temperature for 30 min. To remove non-adhered SRB, plates were washed three times with a solution of acetic acid (1% v/v) and placed to dry. Finally, an adhered SRB was solubilized with Tris (10 mM, 200 μL) and the absorbance at a wavelength of 540 nm was read in the Biotek ELX800 microplate reader. The results obtained by the SRB assay were expressed regarding the concentration compounds that can inhibit cell growth by 50%—GI50. Doxorubicin was used as a positive control.

[2] = system: MCF-7 (breast adenocarcinoma) cells; assay: SRB cell growth inhibition assay, MCF-7; assay type: cell-based, human; conditions: mean ± standard deviation
Description: as §1, §2

[3] = system: NCI-H460 (non-small cell lung cancer) cells; assay: SRB cell growth inhibition assay, NCI-H460; assay type: cell-based; conditions: Homo sapiens, 72 h, mean ± standard deviation
Description: as §1, §2

[4] = system: THP-1-derived macrophages; assay: MTT cytotoxicity in THP-1-derived macrophages; assay type: cell-based, human
Description: Human leukemia cell line, THP-1 (ATCC® TIB-202™, Manassas, VA, USA) was cultured in RPMI-1640 medium supplemented with 10% heat-inactivated Fetal Bovine Serum (FBS), 2 mM L-glutamine, 100 UI/mL penicillin/streptomycin, 20 mM HEPES. The cell line was maintained in a humidified incubator at 37 °C and 5% CO2 by subculture every three days in 20 mL of media at a concentration of 1 × 10^5/mL in a T75 flask. All cell culture reagents were purchased from Lonza-Bioscience (Morrisville, NC, USA).
The cytotoxicity effect of compounds on THP-1-derived macrophages was assessed by the colorimetric MTT assay (3-(4,5-dimethylthiazol-2-yl)-2,5-diphenyl tetrazolium bromide). Briefly, THP-1 cells were suspended in RPMI complete medium at a density of 1 × 10^6 cells/mL and 100 μL/well were seeded in a 96-well plate and were differentiated into macrophages by addition of 40 ng/mL of phorbol-myristate 13-acetate (PMA, Sigma, Saint Louis, MI, USA) for 24 h followed by replacement with fresh medium for more 24 h. Subsequently, cells were incubated with 100 μL of compounds ranging from 100 to 12.5 μM after dilution in the RPMI complete medium. Each condition was carried out in quadruplicate. After 72 h of incubation at 37 °C 5% CO2, the medium was removed and 200 μL of 0.5 mg/mL MTT solution diluted in RPMI was added. Plates were incubated for an additional 4 h. Then 160 μL of media was removed and the same volume of 2-propanol was added. Absorbance was read at 570 nm using a Synergy 2 Multi-Mode Reader (Biotek, Winooski, VT, USA). Cytotoxicity was evaluated by the determination of the CC50 value (drug concentration that reduced the percentage of viable cells in 50%) and calculated by non-linear regression analysis using GraphPad Prism version 8.1.1 for Windows (GraphPad Software, San Diego, CA, USA). The results represent the average of at least three independent experiments. For each compound, the Selectivity Index (SI) was calculated as the ratio between cytotoxicity in THP-1 (CC50, 72 h) and activity against parasites (IC50, 72 h).

[5] = system: five human tumor cell lines (CaCo-2, MCF-7, AGS, HeLa, NCI-H460); assay: SRB assay, statements over the five human tumor cell lines; assay type: cell-based; conditions: text statement over CaCo-2, MCF-7, AGS, read-out: GI50 in all tested human tumor cell lines
Description: as §1
The human tumor cell lines used were CaCo-2 (colorectal adenocarcinoma), MCF-7 (breast adenocarcinoma), AGS (gastric adenocarcinoma), HeLa (cervical carcinoma), NCI-H460 (lung carcinoma). Non-tumor cell lines were also tested: PLP2 (primary pig liver culture). All the cell lines were maintained in RPMI-1640 medium supplemented with 10% fetal bovine serum, glutamine (2 mM), penicillin (100 U/mL), and streptomycin ([…]), with the exception of PLP2, which was maintained in DMEM medium supplemented with fetal bovine serum (10%), glutamine and antibiotics. The culture flasks were incubated at 37 °C and with 5% CO2, under a humid atmosphere. The cells were used only when they had 70 to 80% confluence. […] Finally, an adhered SRB was solubilized with Tris (10 mM, 200 μL) and the absorbance at a wavelength of 540 nm was read in the Biotek ELX800 microplate reader. […]

GI50 ([1]; 72 h) [µM]	GI50 ([1]; Homo sapiens, Caco-2, 72 h) [µM]	GI50 ([2]; 72 h) [µM]	GI50 ([2]; Homo sapiens, MCF7, 72 h) [µM]	GI50 [3] [µM]	GI50 [5] [µM]	Compound	cytotoxicity in THP-1-derived macrophages (in words) [4]
3.72 ± 2.42	< 5	4.08 ± 0.27	< 5	9.33 ± 4.21	< 10	COC(=O)c1sc2nccnc2c1C#Cc1ccccn1 [Compound 2f, Methyl 7-(pyridin-2-ylethynyl)thieno[2,3-b]pyrazine-6-carboxylate]	some level of toxicity
–	58.8 ± 2.44	–	59.3 ± 2.45	61.2 ± 4.17	< 10	O=c1oc(-c2ccccn2)cc2c1sc1nccnc12 [Compound 3f, 8-(Pyridin-2-yl)-6H-pyrano[4′,3′:4,5]thieno[2,3-b]pyrazin-6-one]	some degree of cytotoxicity
